From patent publication US20250000843A1, “LIGNAN-INSPIRED COMPOUNDS, METHODS OF MAKING, AND USING THEREOF” (IOWAIBO, INC., priority 2023, published 2025)

System: MCF7 (human breast cancer cell line)
Experiment: MTT toxicity assay in MCF7 breast cancer cells
Format: cell-based
Conditions: for breast cancer cell death as compared to enterolactone: MCF7, at higher concentrations, 24 hours and 72 hours post-treatment
Protocol: Toxicity of the dibenzyl butyl lactone derivative (3-[(3,4-dimethoxyphenyl)cyclopentyl], 4-[(3-hydroxyphenol)methyl]oxolan-2-one) in breast cancer cells was evaluated using MTT assay. The MTT toxicity test is a colorimetric assay to measure cells' metabolic activity by serving as a substrate of cellular enzymes that reduce the tetrazolium orange dye, MTT (3-(4,5-Dimethylthiazol-2-yl)-2,5-diphenyltetrazolium bromide) to its insoluble, formazan, giving a purple color. The rate of conversion is directly proportional to cells' mitochondrial metabolic activity via NAD (P) H-dependent cellular oxidoreductase enzymes and serves as a surrogate marker of cell viability.
Cultures of MCF7 (human breast cancer cell line) working stock (5 passages) were established under standard culture conditions in Eagle's minimum essential medium (EMEM). EMEM was supplemented with 10% fetal bovine serum (FBS), 2 mM Glutamine and Pen/Strep, and Penicillin 0.01 mg/ml.
Cells previously expanded were seeded in 96 well plates at 1.9×10^5 and 9.6×10^4 cells/plate for 24- and 72-hours treatment respectively. This concentration is known to show the best window for the MTT assay, with better sensitivity and low variability.
5 mg of powdered enterolactone, dibenzyl butyl lactone derivative enantiomer A, and dibenzyl butyl lactone derivative enantiomer B were dissolved in 500 μl of DMSO at room temperature. Eight-point curves, ⅓ dilutions (highest concentration 125 μM), were prepared.
Twenty-four hours following the seeding process, the cells were washed once with phosphate buffered saline (PBS) and treated with the respective compounds in cell culture media. Each condition was tested in triplicates. For positive and negative controls, 8 mM methyl methane sulfonate (MMS) and DMSO 100% were used respectively.
Following compound addition, the plates were incubated for 24 and 72 hours. After the treatment period, cells were washed twice with PBS and media was replaced with MTT reagent at 0.5 mg/ml in Dulbecco's modified Eagle medium (DMEM) without phenol red. The plates were gently shaken and incubated for 4 hours. After the incubation the medium was removed and replaced by DMSO. The plates were gently shaken to solubilize the formazan crystals. Absorbance was measured using an Envision multiplate reader at a wavelength of 570 nm.
Eight serial dilutions were prepared (125.00, 41.67, 13.89, 4.63, 1.54, 0.51, 0.17 and 0.06 µM to evaluate the compounds (in triplicate). MTT results showing cell death values above 20% are considered as having a significant toxic effect.
MTT assay results are shown in Tables 2-7 and expressed as the percentage of cell death after treatment.

## O=C1OC[C@H](Cc2cccc(O)c2)[C@H]1Cc1cccc(O)c1 (racemic) [Enterolactone, reference compound]
MCF7, 24 hours, 0.06 μM
  Cell death #1 (%): −11.97%
  Cell death #2 (%): −41.20%
  Cell death #3 (%): −33.13%
  Cell death (%) MEAN: −28.77%
MCF7, 24 hours, 0.17 μM
  Cell death #1 (%): −14.66%
  Cell death #2 (%): −12.36%
  Cell death #3 (%): −5.43%
  Cell death (%) MEAN: −10.82%
MCF7, 24 hours, 0.51 μM
  Cell death #1 (%): 2.26%
  Cell death #2 (%): −23.51%
  Cell death #3 (%): −19.28%
  Cell death (%) MEAN: −13.51%
MCF7, 24 hours, 1.54 μM
  Cell death #1 (%): −16.20%
  Cell death #2 (%): −16.97%
  Cell death #3 (%): −21.20%
  Cell death (%) MEAN: −18.13%
MCF7, 24 hours, 4.63 μM
  Cell death #1 (%): −5.05%
  Cell death #2 (%): −19.28%
  Cell death #3 (%): −25.82%
  Cell death (%) MEAN: −16.71%
MCF7, 24 hours, 13.89 μM
  Cell death #1 (%): −10.05%
  Cell death #2 (%): −8.13%
  Cell death #3 (%): −3.51%
  Cell death (%) MEAN: −7.23%
MCF7, 24 hours, 41.67 μM
  Cell death #1 (%): −30.05%
  Cell death #2 (%): −30.43%
  Cell death #3 (%): −40.43%
  Cell death (%) MEAN: −33.64%
MCF7, 24 hours, 125.00 μM
  Cell death #1 (%): −13.51%
  Cell death #2 (%): −8.13%
  Cell death #3 (%): 7.64%
  Cell death (%) MEAN: −4.66%
MCF7, 72 hours, 0.06 μM
  Cell death #1 (%): −30.40%
  Cell death #2 (%): −23.70%
  Cell death #3 (%): −42.46%
  Cell death (%) MEAN: −32.19%
MCF7, 72 hours, 0.17 μM
  Cell death #1 (%): −67.59%
  Cell death #2 (%): −62.23%
  Cell death #3 (%): −65.91%
  Cell death (%) MEAN: −65.24%
MCF7, 72 hours, 0.51 μM
  Cell death #1 (%): −66.25%
  Cell death #2 (%): −61.22%
  Cell death #3 (%): −61.89%
  Cell death (%) MEAN: −63.12%
MCF7, 72 hours, 1.54 μM
  Cell death #1 (%): −70.27%
  Cell death #2 (%): −54.19%
  Cell death #3 (%): −60.89%
  Cell death (%) MEAN: −61.78%
MCF7, 72 hours, 4.63 μM
  Cell death #1 (%): −53.85%
  Cell death #2 (%): −66.92%
  Cell death #3 (%): −69.26%
  Cell death (%) MEAN: −63.34%
MCF7, 72 hours, 13.89 μM
  Cell death #1 (%): −48.83%
  Cell death #2 (%): −38.44%
  Cell death #3 (%): −39.11%
  Cell death (%) MEAN: −42.13%
MCF7, 72 hours, 41.67 μM
  Cell death #1 (%): −22.36%
  Cell death #2 (%): −24.04%
  Cell death #3 (%): −22.70%
  Cell death (%) MEAN: −23.03%
MCF7, 72 hours, 125.00 μM
  Cell death #1 (%): 88.19%
  Cell death #2 (%): 90.54%
  Cell death #3 (%): 89.20%
  Cell death (%) MEAN: 89.31%

## O=C1OCC(Cc2ccc3c(c2)OCO3)/C1=C\c1cccc(O)c1 (single isomer, unassigned) [Enantiomer A, 3-[(3,4-dimethoxyphenyl)cyclopentyl], 4-[(3-hydroxyphenol)methyl]oxolan-2-one]
MCF7, 24 hours, 0.06 μM
  Cell death #1 (%): −25.82%
  Cell death #2 (%): −37.36%
  Cell death #3 (%): −35.43%
  Cell death (%) MEAN: −32.87%
MCF7, 24 hours, 0.17 μM
  Cell death #1 (%): −27.36%
  Cell death #2 (%): −44.28%
  Cell death #3 (%): −55.05%
  Cell death (%) MEAN: −42.23%
MCF7, 24 hours, 0.51 μM
  Cell death #1 (%): −57.74%
  Cell death #2 (%): −18.51%
  Cell death #3 (%): −45.82%
  Cell death (%) MEAN: −40.69%
MCF7, 24 hours, 1.54 μM
  Cell death #1 (%): −48.89%
  Cell death #2 (%): −51.59%
  Cell death #3 (%): −43.51%
  Cell death (%) MEAN: −48.00%
MCF7, 24 hours, 4.63 μM
  Cell death #1 (%): −58.89%
  Cell death #2 (%): −57.74%
  Cell death #3 (%): −34.66%
  Cell death (%) MEAN: −50.43%
MCF7, 24 hours, 13.89 μM
  Cell death #1 (%): −61.20%
  Cell death #2 (%): −35.05%
  Cell death #3 (%): −25.05%
  Cell death (%) MEAN: −40.43%
MCF7, 24 hours, 41.67 μM
  Cell death #1 (%): −83.51%
  Cell death #2 (%): −78.89%
  Cell death #3 (%): −45.05%
  Cell death (%) MEAN: −69.15%
MCF7, 24 hours, 125.00 μM
  Cell death #1 (%): 98.41%
  Cell death #2 (%): 95.72%
  Cell death #3 (%): 100.72%
  Cell death (%) MEAN: 98.29%
MCF7, 72 hours, 0.06 μM
  Cell death #1 (%): −51.17%
  Cell death #2 (%): −29.40%
  Cell death #3 (%): −11.64%
  Cell death (%) MEAN: −30.74%
MCF7, 72 hours, 0.17 μM
  Cell death #1 (%): −56.87%
  Cell death #2 (%): −58.21%
  Cell death #3 (%): −50.17%
  Cell death (%) MEAN: −55.08%
MCF7, 72 hours, 0.51 μM
  Cell death #1 (%): −79.98%
  Cell death #2 (%): −51.84%
  Cell death #3 (%): −72.61%
  Cell death (%) MEAN: −68.15%
MCF7, 72 hours, 1.54 μM
  Cell death #1 (%): −57.87%
  Cell death #2 (%): −73.62%
  Cell death #3 (%): −58.88%
  Cell death (%) MEAN: −63.46%
MCF7, 72 hours, 4.63 μM
  Cell death #1 (%): −90.37%
  Cell death #2 (%): −113.15%
  Cell death #3 (%): −79.31%
  Cell death (%) MEAN: −94.28%
MCF7, 72 hours, 13.89 μM
  Cell death #1 (%): −43.13%
  Cell death #2 (%): −52.85%
  Cell death #3 (%): −46.15%
  Cell death (%) MEAN: −47.38%
MCF7, 72 hours, 41.67 μM
  Cell death #1 (%): 15.49%
  Cell death #2 (%): 4.10%
  Cell death #3 (%): 2.76%
  Cell death (%) MEAN: 7.45%
MCF7, 72 hours, 125.00 μM
  Cell death #1 (%): 99.92%
  Cell death #2 (%): 99.92%
  Cell death #3 (%): 99.58%
  Cell death (%) MEAN: 99.80%
  breast cancer cell death as compared to enterolactone: increased breast cancer cell death as compared to enterolactone

## O=C1OCC(Cc2ccc3c(c2)OCO3)/C1=C\c1cccc(O)c1 (single isomer, unassigned) [Enantiomer B, 3-[(3,4-dimethoxyphenyl)cyclopentyl], 4-[(3-hydroxyphenol)methyl]oxolan-2-one]
MCF7, 24 hours, 0.06 μM
  Cell death #1 (%): −90.03%
  Cell death #2 (%): −85.75%
  Cell death #3 (%): −79.34%
  Cell death (%) MEAN: −85.04%
MCF7, 24 hours, 0.17 μM
  Cell death #1 (%): −146.30%
  Cell death #2 (%): −115.67%
  Cell death #3 (%): −91.45%
  Cell death (%) MEAN: −117.81%
MCF7, 24 hours, 0.51 μM
  Cell death #1 (%): −124.22%
  Cell death #2 (%): −120.66%
  Cell death #3 (%): −95.01%
  Cell death (%) MEAN: −113.30%
MCF7, 24 hours, 1.54 μM
  Cell death #1 (%): −115.67%
  Cell death #2 (%): −156.99%
  Cell death #3 (%): −114.96%
  Cell death (%) MEAN: −129.21%
MCF7, 24 hours, 4.63 μM
  Cell death #1 (%): −134.19%
  Cell death #2 (%): −163.40%
  Cell death #3 (%): −138.47%
  Cell death (%) MEAN: −145.35%
MCF7, 24 hours, 13.89 μM
  Cell death #1 (%): −132.06%
  Cell death #2 (%): −174.09%
  Cell death #3 (%): −134.91%
  Cell death (%) MEAN: −147.02%
MCF7, 24 hours, 41.67 μM
  Cell death #1 (%): −211.84%
  Cell death #2 (%): −192.61%
  Cell death #3 (%): −204.01%
  Cell death (%) MEAN: −202.82%
MCF7, 24 hours, 125.00 μM
  Cell death #1 (%): 63.85%
  Cell death #2 (%): 47.46%
  Cell death #3 (%): 63.13%
  Cell death (%) MEAN: 58.15%
MCF7, 72 hours, 0.06 μM
  Cell death #1 (%): −31.84%
  Cell death #2 (%): −27.21%
  Cell death #3 (%): −56.05%
  Cell death (%) MEAN: −38.37%
MCF7, 72 hours, 0.17 μM
  Cell death #1 (%): −74.60%
  Cell death #2 (%): −57.08%
  Cell death #3 (%): −52.45%
  Cell death (%) MEAN: −61.38%
MCF7, 72 hours, 0.51 μM
  Cell death #1 (%): −28.49%
  Cell death #2 (%): −52.45%
  Cell death #3 (%): −56.31%
  Cell death (%) MEAN: −45.75%
MCF7, 72 hours, 1.54 μM
  Cell death #1 (%): −22.57%
  Cell death #2 (%): −37.77%
  Cell death #3 (%): −19.48%
  Cell death (%) MEAN: −26.60%
MCF7, 72 hours, 4.63 μM
  Cell death #1 (%): −32.87%
  Cell death #2 (%): −34.42%
  Cell death #3 (%): −30.04%
  Cell death (%) MEAN: −32.44%
MCF7, 72 hours, 13.89 μM
  Cell death #1 (%): −23.34%
  Cell death #2 (%): −30.55%
  Cell death #3 (%): −9.69%
  Cell death (%) MEAN: −21.20%
MCF7, 72 hours, 41.67 μM
  Cell death #1 (%): −18.96%
  Cell death #2 (%): −6.08%
  Cell death #3 (%): 17.10%
  Cell death (%) MEAN: −2.65%
MCF7, 72 hours, 125.00 μM
  Cell death #1 (%): 99.00%
  Cell death #2 (%): 99.52%
  Cell death #3 (%): 99.00%
  Cell death (%) MEAN: 99.17%
  breast cancer cell death as compared to enterolactone: increased breast cancer cell death as compared to enterolactone
